Values quoted from earlier work as cited in patent publication US5932245A, “Gelatin or collagen hydrolysate containing drug formulation that provides for immediate release of nanoparticle drug compounds” (priority 1991, dated 1999).
Values after ≈ are worked out from the molar mass of the structure shown. Read-outs that look alike come from different tables or passages of the source. Values belong to the molecule of their own block, whether it stands above or below them.

Assays:
[1] = in vivo
[2] = in contrast to indometacin
[3] = aqueous medium

SMILES: COc1ccc2c(c1)c(CC(=O)OCC(=O)O)c(C)n2C(=O)c1ccc(Cl)cc1 [acemetacin, carboxymethyl(1-(4-chlorobenzoyl)-5-methoxy-2-methyl-3-indolyl)acetate]
metabolism [1]: for the most part metabolized to indometacin
ulcerogenic properties [2]: weakly pronounced ulcerogenic properties

solubility ([3]; pH 1.3, room temperature): 1 µg/mL (≈ 2.02 µM)
solubility ([3]; pH 6.0, room temperature): 3 µg/mL (≈ 6.07 µM)
solubility ([3]; pH 7.8, room temperature): about 30 mg/l
SMILES: COc1ccc(Cl)cc1C(=O)NCCc1ccc(S(=O)(=O)NC(=O)NC2CCCCC2)cc1 [glibenclamide, 1-{4-[2-(5-chloro-2-methoxybenzamido)ethyl]phenylsulfonyl}-3-cyclohexylurea]

water solubility (in words): virtually water-insoluble
SMILES: COc1ccc2c(c1)c(CC(=O)O)c(C)n2C(=O)c1ccc(Cl)cc1 [indometacin, (1-(4-chlorobenzoyl)-5-methoxy-2-methyl-3-indolyl)acetic acid]
